System: ovarian cancer cell lines
Assay: Cell growth inhibition (viable cell count, trypan blue exclusion) of ovarian cancer cell lines after seven days with inhibitor; logIC50 modelled against alteration status
Type: cell-based, human
Conditions: for increased sensitivity to PARP inhibition: from difference of mean log IC50
Method: To begin to understand the relationship between genomic, epigenetic and expression alterations and response to pathway inhibitors, a screening platform was developed for evaluating cellular proliferation in the presence of candidate therapeutic agents. As an example of the analyses that can be performed and the genotype-phenotype connections that can be obtained, IC20, IC50, and IC80 were measured after seven days of incubation for three inhibitors, GNE-493, BMN673, and MEK162, targeting PI3K, PARP, and MEK proteins, respectively (Table 11). Aggregating the molecular information from multiple platforms to the gene level, analyses was limited to genes that were altered in three or more of the 45 cell lines. Alterations that tend to be mutually exclusive between cell lines were combined, including genes in the PI3K pathway (PIK3CA and PPP2R1A) and the genes in the TGFBR pathway (SMAD3 and SMAD4). As tumors with homologous recombination deficiencies (HRD) have been known to be sensitive to PARP inhibitors, covariates summarizing the extent of genome-wide structural alterations for the PARP inhibitor BMN673 were additionally added. A priori it was hypothesized that most alterations would not modulate response to the targeted inhibitors. Implementing a Bayesian model averaging approach to variable selection as has been considered for other biomarkers (see, e.g., Viallefont et al., 2001 Statistics in Medicine 20:3215-3230; Neto et al., 2014 Pacific Symposium on Biocomputing. Pacific Symposium on Biocomputing: 27-38; and Meisner et al., 2018 Biomarker research 6:3), a positive prior probability that the coefficient for each gene is exactly zero was specified. Given the genes or combination of genes and structural variant summaries, the space of possible single- and multi-variate models for logIC50 was explored by Markov Chain Monte Carlo. Relevant posterior summaries available for each inhibitor include the probability that the regression coefficient is non-zero and the posterior distribution of the regression coefficients.
Cell lines were obtained from multiple sources (Table 1). Cells were plated into 24-well tissue culture plates at a density of 2×10^5 to 5×10^5 cells per well and grown in cell-line-specific medium without or with increasing concentrations of their respective drugs (ranging between […]).
Cells were counted on day 7 using an automated cell viability assay (Vi-CELL XR Cell Viability Analyzer, Beckman Coulter, Fullerton, Calif., USA), a video imaging system that uses an automated trypan blue exclusion protocol. Both adherent and floating viable cells were counted for treatment and control wells. Growth inhibition (GI) was calculated as a percentage of untreated controls. The log of the fractional GI was then plotted against the log of the drug concentration and the IC50 values were interpolated from the resulting linear regression curve fit (CalcuSyn; Biosoft, Ferguson, Mo., USA). Experiments were performed thrice in duplicate for each cell line.
Bayesian model averaging: models of the form
were considered where Ci denotes the logIC50 and xi;j an indicator for the alteration status (0 not altered, 1 altered) of feature j in cell line i. The regression coefficient for feature j is the product of a binary indicator zj and a real number hj. A modified g-prior was used for γ such that γj was zero whenever zj was zero. For the vector of γ's with non-zero z's, a multivariate normal prior was used. The space of the possible 2p models was explored using a Gibbs sampler. The binary features comprising the x's included somatic mutations, somatic structural variants (deletions, amplifications, in-frame fusions), methylation, and under- or over-expression. For the PARP inhibitor, the number of intra-chromosomal rearrangements and the HRD score as potential markers for HRD were additionally considered. […]

Cn1ncnc1[C@H]1c2n[nH]c(=O)c3cc(F)cc(c23)N[C@@H]1c1ccc(F)cc1 [BMN673, talazoparib]
increased sensitivity to PARP inhibition (cell lines with MYC amplification vs without, 90% CI: 99%-64%): 93% | association with sensitivity to PARP inhibition (cell lines with inactivating BRCA1/2 mutations, HRD score, PARP1 expression): trend towards increased sensitivity to PARP inhibition but were not statistically significant | increased sensitivity to PARP inhibition (cell lines with increased number of genome-wide rearrangements vs without, 90% CI, 96%-43%): 86%

CC(C)(O)c1cc2nc(-c3cnc(N)nc3)nc(N3CCOCC3)c2s1 [GNE-493]
increased sensitivity (cancer cell lines with mutations in PARP1 or PPP2R1A (so in the source)): 66% | difference in mean logIC50 by alteration status (cell lines with mutations in PIK3CA or PPP2R1A vs without, 7 days incubation): −0.63 | increased sensitivity to the inhibitor (cell lines with mutations in PIK3CA or PPP2R1A vs without, FIG. 6B legend, 90% HPD: 5-72): 48%

Cn1cnc2c(F)c(Nc3ccc(Br)cc3F)c(C(=O)NOCCO)cc21 [MEK-162, binimetinib]
increased sensitivity (cell lines with mutations or deletions in SMAD3 or SMAD4): 89%
